Laboratory results: the supplement of paper PMC13380429

What was measured:
Settings in all cases: 72 h
U2OS [1] = assay: drug sensitivity score (DSS) for viability; higher = more toxic; extreme values may be limits of the assay
Calu-3 [2] = assay: as above
HepG2 [3] = assay: as above
Caco-2 [4] = assay: as above
U2OS [5] = assay: relative viability EC50 (midpoint between 100% and the lowest measured viability); higher = less toxic
Calu-3 [6] = assay: as above
HepG2 [7] = assay: as above
Caco-2 [8] = assay: as above
U2OS [9] = assay: cell viability relative to DMSO; higher = less toxic
Calu-3 [10] = assay: as above
HepG2 [11] = assay: as above
Caco-2 [12] = assay: as above
Vero E6 [13] = assay: drug sensitivity score (DSS) for viability; higher = more toxic; extreme values may be limits of the assay
Vero E6 [14] = assay: relative viability EC50 (midpoint between 100% and the lowest measured viability); higher = less toxic
Vero E6 [15] = assay: cell viability relative to DMSO; higher = less toxic

| SMILES | drug sensitivity score (U2OS [1]) | drug sensitivity score (Calu-3 [2]) | drug sensitivity score (HepG2 [3]) | drug sensitivity score (Caco-2 [4]) | relative viability EC50 (U2OS [5]) [µM] | relative viability EC50 (Calu-3 [6]) [µM] | relative viability EC50 (HepG2 [7]) [µM] | relative viability EC50 (Caco-2 [8]) [µM] | cell viability (U2OS [9]; 1 nM) [%] | cell viability (U2OS [9]; 10 nM) [%] | cell viability (U2OS [9]; 100 nM) [%] | cell viability (U2OS [9]; 1000 nM) [%] | cell viability (U2OS [9]; 10000 nM) [%] | cell viability (Calu-3 [10]; 1 nM) [%] | cell viability (Calu-3 [10]; 10 nM) [%] | cell viability (Calu-3 [10]; 100 nM) [%] | cell viability (Calu-3 [10]; 1000 nM) [%] | cell viability (Calu-3 [10]; 10000 nM) [%] | cell viability (HepG2 [11]; 1 nM) [%] | cell viability (HepG2 [11]; 10 nM) [%] | cell viability (HepG2 [11]; 100 nM) [%] | cell viability (HepG2 [11]; 1000 nM) [%] | cell viability (HepG2 [11]; 10000 nM) [%] | cell viability (Caco-2 [12]; 1 nM) [%] | cell viability (Caco-2 [12]; 10 nM) [%] | cell viability (Caco-2 [12]; 100 nM) [%] | cell viability (Caco-2 [12]; 1000 nM) [%] | cell viability (Caco-2 [12]; 10000 nM) [%] | drug sensitivity score (Vero E6 [13]) | relative viability EC50 (Vero E6 [14]) [µM] | cell viability (Vero E6 [15]; 1 nM) [%] | cell viability (Vero E6 [15]; 10 nM) [%] | cell viability (Vero E6 [15]; 100 nM) [%] | cell viability (Vero E6 [15]; 1000 nM) [%] | cell viability (Vero E6 [15]; 10000 nM) [%] |
| --- | --- | --- | --- | --- | --- | --- | --- | --- | --- | --- | --- | --- | --- | --- | --- | --- | --- | --- | --- | --- | --- | --- | --- | --- | --- | --- | --- | --- | --- | --- | --- | --- | --- | --- | --- |
| C=CC[N@@+]12CC[C@@]34c5ccccc5N5/C=C6/[C@H]7C[C@H]8[C@@]9(CC[N@@+]8(CC=C)C/C7=C/CO)c7ccccc7N(/C=C(/[C@@H](C[C@@H]31)/C(=C\CO)C2)[C@H]54)[C@@H]69 [alcuronium] | 0 | 1 | 0 | 0 | > 10 | > 10 | > 10 | > 10 | 102 | 99 | 101 | 99.7 | 103 | 97.8 | 103 | 91.2 | 90.8 | 87.8 | 106 | 107 | 98.2 | 102 | 103 | 94.9 | 99.9 | 99.4 | 102 | 107 |  |  |  |  |  |  |  |
| O=c1[nH]c(=O)n([C@H]2C[C@H](O)[C@@H](CO)O2)cc1Br [broxuridine] | 0 | 0 | 2.3 | 0 | > 10 | > 10 |  | > 10 | 100 | 98 | 100 | 96.4 | 97.5 | 94.2 | 86.5 | 102 | 95.9 | 101 | 97 | 97.1 | 98.1 | 95.3 | 66.7 | 96 | 85.3 | 91.6 | 94.4 | 106 | 1 | > 10 | 110 | 107 | 99 | 97.8 | 79 |
| O=C1C2CC=CCC2C(=O)N1SC(Cl)(Cl)Cl (configuration not stated) [captan] | 0 | 0 | 3.1 | 0 | > 10 | > 10 | > 10 | > 10 | 105 | 100 | 105 | 96.1 | 92.1 | 99.9 | 99.6 | 102 | 106 | 99.4 | 101 | 93.1 | 85.8 | 86.3 | 82.1 | 102 | 102 | 101 | 98.6 | 88.9 |  |  |  |  |  |  |  |
| CCCCc1nc(Cl)c(C(=O)O)n1Cc1ccc(-c2ccccc2-c2nn[nH]n2)cc1 [carboxylosartan] | 0 |  | 0 | 0 | > 10 |  | > 10 | > 10 | 103 | 102 | 101 | 98.7 | 102 |  |  |  |  |  | 99.6 | 102 | 94.5 | 113 | 95.7 | 96.6 | 98.8 | 95.5 | 100 | 96.9 | 0 | > 10 | 103 | 109 | 98.3 | 104 | 96.5 |
| CCCCCCOC(=O)NC(=N)c1ccc(NCc2nc3cc(C(=O)N(CCC(=O)OCC)c4ccccn4)ccc3n2C)cc1 [dabigatran-etexilate] | 0 | 0.1 | 0.7 | 1.5 | > 10 | > 10 |  | > 10 | 97.7 | 92.9 | 101 | 95.9 | 96.9 | 101 | 82.3 | 109 | 103 | 84.3 | 91.6 | 106 | 88.9 | 116 | 72.7 | 96.5 | 88.5 | 104 | 93.8 | 78.1 | 0 | > 10 | 97.8 | 103 | 99.4 | 102 | 108 |
| Cc1cc(N)c2ccccc2[n+]1CCCCCCCCCC[n+]1c(C)cc(N)c2ccccc21 [dequalinium] | 1.8 | 0.8 | 6.4 | 4.8 |  |  | 1.38 | 2.16 | 104 | 102 | 96.2 | 102 | 60.1 | 101 | 92.7 | 104 | 107 | 73.5 | 98.6 | 100 | 92.7 | 76.2 | 33.8 | 96.9 | 94.4 | 98.9 | 92.2 | 36.4 | 0 | > 10 | 101 | 104 | 104 | 102 | 87.4 |
| C/C1=C/C[C@@H](/C(C)=C/c2csc(C)n2)OC(=O)C[C@H](O)C(C)(C)C(=O)[C@H](C)[C@@H](O)[C@@H](C)CCC1 [epothilone-D] | 29.4 | 14.8 | 31.7 | 17.4 | 0.0075 |  | 0.0074 | 0.0202 | 97.6 | 53.1 | 29.5 | 23.2 | 41.5 | 110 | 84 | 61.9 | 55.2 | 54.1 | 91.8 | 50.6 | 22.2 | 15.8 | 22.2 | 101 | 83.1 | 53.9 | 46.3 | 56.9 | 21.5 | 0.0363 | 99.8 | 83.9 | 45.1 | 25.3 | 46.8 |
| C[C@]12CC[C@@H]3c4ccc(O)cc4CC[C@H]3[C@@H]1CC[C@@H]2OC(=O)CCC1CCCC1 [estradiol-cypionate] | 0 | 0 | 0 | 0 | > 10 | > 10 | > 10 | > 10 | 99.6 | 104 | 99.2 | 100 | 96.7 | 82 | 90.4 | 103 | 93 | 102 | 103 | 96.5 | 105 | 95.8 | 98.8 | 99.9 | 106 | 85.4 | 97.2 | 90 |  |  |  |  |  |  |  |
| CC[C@@]1(O)C(=O)OCc2c1cc1n(c2=O)Cc2c-1nc1cc(F)c(C)c3c1c2[C@@H](N)CC3 [exatecan-mesylate] | 20.9 |  | 36.4 | 25.8 | 0.127 |  | 0.0038 | 0.0178 | 102 | 92 | 56.9 | 17 | 4.1 |  |  |  |  |  | 65.8 | 40.5 | 20.8 | 2.3 | 3.9 | 90.7 | 72.7 | 32.7 | 21 | 20.7 | 20.5 | 0.158 | 110 | 91.8 | 60.6 | 15.9 | 0.4 |
| CCCCCN(C)CCC(O)(P(=O)(O)O)P(=O)(O)O [ibandronate] |  | 0 | 0 | 0 |  | > 10 | > 10 | > 10 |  |  |  |  |  | 96.4 | 111 | 96 | 106 | 107 | 111 | 98 | 112 | 106 | 117 | 97 | 111 | 106 | 106 | 94.5 |  |  |  |  |  |  |  |
| COC(F)(F)C(Cl)Cl [methoxyflurane] | 0 |  | 0 | 0 | > 10 |  | > 10 | > 10 | 99.8 | 97.3 | 98.5 | 95.3 | 100 |  |  |  |  |  | 103 | 96.3 | 100 | 94 | 109 | 96.2 | 98.1 | 96.9 | 99.8 | 94.4 | 0 | > 10 | 104 | 102 | 103 | 96.7 | 96.3 |
| O=C(O)c1ccccc1S [o-mercapto-benzoic-acid] | 0 |  | 0 | 0 | > 10 |  | > 10 | > 10 | 97.9 | 94.1 | 95.9 | 94.8 | 109 |  |  |  |  |  | 99.7 | 91.5 | 89.9 | 101 | 112 | 98 | 87.2 | 86.4 | 102 | 99.4 | 0 | > 10 | 92.2 | 97.9 | 96.2 | 105 | 106 |
| CCn1cc(C(=O)O)c(=O)c2cnc(N3CCCC3)nc21 [piromidic-acid] | 0 | 0 | 0 | 0 | > 10 | > 10 | > 10 | > 10 | 99.8 | 98 | 100 | 99.1 | 102 | 101 | 74.8 | 95.1 | 87 | 98.6 | 93 | 104 | 96.9 | 103 | 99.3 | 103 | 90.3 | 97.6 | 97.1 | 93.7 |  |  |  |  |  |  |  |
| CCC(NC(C)C)C(O)c1ccc(O)c2[nH]c(=O)ccc12 (configuration not stated) [procaterol] | 0 | 0 | 0 | 0 | > 10 | > 10 | > 10 | > 10 | 101 | 105 | 96 | 104 | 101 | 92.1 | 104 | 105 | 110 | 95.9 | 110 | 93.9 | 103 | 97.4 | 95.4 | 84.2 | 107 | 89.9 | 99.6 | 92.8 |  |  |  |  |  |  |  |
| O=C1NC(=O)[C@@H](c2cn3c4c(cccc24)CCC3)[C@@H]1c1c[nH]c2ccccc12 [tivantinib] | 10.1 | 5.3 | 11.1 | 7.7 | 0.648 |  | 0.311 | 0.688 | 102 | 102 | 95.1 | 51.9 | 26.2 | 98.3 | 94.1 | 98.9 | 72.6 | 59.6 | 108 | 96.5 | 99.5 | 39.5 | 41.5 | 107 | 94.3 | 103 | 60.2 | 44.7 | 12.7 | 0.331 | 97.3 | 99.8 | 92.8 | 36.5 | 28.2 |
